In US20080102497A1, “ENZYMATIC HYDROLYSIS OF STARCH” (priority 2006, published 2008):
Values joined by “and” are separate entries in the source; they are usually repeats but may differ in a detail not shown here. Identical values can stand only once. Like-named read-outs stand apart in the source and are kept apart here.

Key:
[1] = tested on: glucoamylase from Rhizopus sp.; test: hydrolysis of raw corn starch, reducing sugar by DNSA; type: biochemical; conditions: for Relative Activity: raw corn starch, pH 5.3, 37° C., 20 min
From the text: (§1) The α-amylase from Aspergillus oryzae and the glucoamylase from Rhizopus sp.

[2] = biological target: α-amylase from Aspergillus oryzae (Aspergillus oryzae, UniProt P0C1B3); test: as above; type: biochemical; conditions: for Relative Activity: raw corn starch, pH 5.3, 37° C., 20 min
From the text: as §1

[3] = biological target: glucoamylase from Aspergillus Niger (Aspergillus niger, UniProt P69328); conditions: for Relative Activity: washed 5 times before enzyme, pH 5.3, 37° C., 20 min
Description: Thereafter 40 μl of the buffer and metal solution was added to 15 mg raw corn starch and the resulting mixture was pre-incubated at 20° C. for 20 minutes. The starch mixture was washed 5 times with excess buffer, followed by centrifugation, and removal of the supernatant. Then an enzyme solution containing buffer and the glucoamylase from Aspergillus niger was added to the washed starch and the reaction mixture incubated at 37° C. for 20 minutes. The control reaction mixture contained substrate, enzyme, and buffer but no manganese ion. The starch hydrolysis reaction was stopped by combining the reaction mixture with a solution containing DNSA and heating for 30 min at 85° C. The absorbance of the control and test samples was measured at 562 nm to monitor the amount of reducing sugar in each sample.

[4] = tested on: glucoamylase from Rhizopus sp.; test: effect of pre-incubation of Mn^++ with enzyme or starch on raw corn starch conversion; type: biochemical; conditions: for % conversion of the starch substrate: reaction 37° C., pH 5.3
Description: The glucoamylase from Rhizopus sp. Or raw corn starch substrate were pre-incubated in a sodium acetate buffer, pH 5.3, with 1.0 mM Mn^++ for 0, 20, 40, or 60 min at 22° C. The enzyme pre-incubation solutions were then combined with 15 mg raw corn starch to provide a reaction mixture that was incubated at 37° C. for 5 minutes. The starch pre-incubation solutions were combined with an enzyme solution containing the glucoamylase from Rhizopus sp and buffer to provide a reaction mixture that was incubated at 37° C. for 5 minutes or 10 minutes.

[5] = biological target: T1, β-amylase Type II-B from barley (Hordeum vulgare, UniProt P16098); test: hydrolysis of raw corn starch or soluble starch; type: biochemical; conditions: for % Relative Activity: pH 5.3, 37° C., 20 min
T1 construct: purchased Sigma Sigma-7130
Description: (§2) Each of the buffered enzyme solutions was separately added to 15 mg raw corn starch or 0.6 mg soluble starch, and the reaction mixtures incubated at 37° C. for 20 minutes. The control reaction mixture contained substrate, enzyme, and buffer but no manganese ion. The starch hydrolysis reaction was stopped by combining the reaction mixture with a solution containing DNSA and heating for 30 min at 85° C. The absorbance of the control and test samples was measured at 562 nm to monitor the amount of reducing sugar in each sample.

[6] = biological target: T2, β-amylase from sweet potato (Ipomoea batatas, UniProt P10537); test: hydrolysis of raw corn starch or soluble starch; type: biochemical; conditions: for % Relative Activity: pH 5.3, 37° C., 20 min
T2 construct: purchased Sigma A-7005
Description: as §2

[7] = biological target: β-amylase from barley (Hordeum vulgare, UniProt P16098); test: hydrolysis of cooked corn starch varieties; type: biochemical; conditions: pH 5.2, 37° C., 10 min
Description: The separate reaction mixtures were incubated at 37° C. for 10 minutes. The control reaction mixture contained enzyme, buffer, and starch but no manganese ion. The starch hydrolysis reaction was stopped by combining the reaction mixture with a solution containing DNSA and heating for 30 min at 85° C. The absorbance of the control and test samples was measured at 562 nm to monitor the amount of reducing sugar in each sample.

[8] = biological target: α-amylase from Bacillus licheniformis (Bacillus licheniformis, UniProt P06278); test: hydrolysis of cooked dent corn starch; type: biochemical; conditions: cooked dent corn starch 0.5%, pH 5.2, 37° C., 10 min
Description: (§3) The separate reaction mixtures were incubated at 37° C. for 10 minutes. The control reaction mixtures contained enzyme, buffer, and starch but no manganese ion. The starch hydrolysis reaction was stopped by combining the reaction mixture with a solution containing DNSA and heating for 30 min at 85° C. The absorbance of the control and test samples was measured at 562 nm to monitor the amount of reducing sugar in each sample.

[9] = tested on: α-amylase from Bacillus subtilis; test: hydrolysis of cooked dent corn starch; type: biochemical; conditions: 0.01 mM Mn^++; cooked dent corn starch 0.5%; pH 5.2; 37° C., 10 min
Description: as §3

[10] = biological target: T3, industrial α-amylase known as Termamyl (Bacillus licheniformis, UniProt P06278); test: hydrolysis of cooked dent corn starch; type: biochemical; conditions: cooked dent corn starch 0.5%, pH 5.2, 37° C., 10 min
T3 construct: purchased Novozymes
Description: as §3

[11] = biological target: T2, β-amylase from sweet potato; test: hydrolysis of cooked dent corn starch; type: biochemical; conditions: cooked dent corn starch 0.5%, pH 5.2, 37° C., 10 min
Description: as §3

[12] = tested on: enzyme mixture of purified glucoamylase from mushroom and purified α-amylase from barley; test: hydrolysis of raw corn starch by enzyme mixture, reducing sugar by DNSA; type: biochemical; conditions: pH 5.3, 37° C., 20 min
[13] = raw corn starch and soluble starch

T1 sequence (P16098 whole entry): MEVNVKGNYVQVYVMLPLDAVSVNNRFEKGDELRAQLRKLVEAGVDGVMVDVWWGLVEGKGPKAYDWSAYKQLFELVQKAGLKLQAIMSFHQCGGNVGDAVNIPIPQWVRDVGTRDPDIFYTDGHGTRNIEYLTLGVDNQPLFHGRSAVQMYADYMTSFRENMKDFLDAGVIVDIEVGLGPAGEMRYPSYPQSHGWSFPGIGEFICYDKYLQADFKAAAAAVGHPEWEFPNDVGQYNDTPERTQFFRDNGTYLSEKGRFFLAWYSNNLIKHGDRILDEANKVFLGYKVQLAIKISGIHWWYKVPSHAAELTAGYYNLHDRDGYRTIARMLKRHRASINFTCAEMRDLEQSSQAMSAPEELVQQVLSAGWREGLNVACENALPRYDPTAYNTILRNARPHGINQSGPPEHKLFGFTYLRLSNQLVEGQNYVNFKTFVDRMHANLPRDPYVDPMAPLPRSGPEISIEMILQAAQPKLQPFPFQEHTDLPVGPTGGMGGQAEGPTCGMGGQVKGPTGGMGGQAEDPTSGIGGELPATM
Sequence of β-amylase from barley (P16098 whole entry): as above
Sequence of glucoamylase from Aspergillus Niger (P69328 25-640): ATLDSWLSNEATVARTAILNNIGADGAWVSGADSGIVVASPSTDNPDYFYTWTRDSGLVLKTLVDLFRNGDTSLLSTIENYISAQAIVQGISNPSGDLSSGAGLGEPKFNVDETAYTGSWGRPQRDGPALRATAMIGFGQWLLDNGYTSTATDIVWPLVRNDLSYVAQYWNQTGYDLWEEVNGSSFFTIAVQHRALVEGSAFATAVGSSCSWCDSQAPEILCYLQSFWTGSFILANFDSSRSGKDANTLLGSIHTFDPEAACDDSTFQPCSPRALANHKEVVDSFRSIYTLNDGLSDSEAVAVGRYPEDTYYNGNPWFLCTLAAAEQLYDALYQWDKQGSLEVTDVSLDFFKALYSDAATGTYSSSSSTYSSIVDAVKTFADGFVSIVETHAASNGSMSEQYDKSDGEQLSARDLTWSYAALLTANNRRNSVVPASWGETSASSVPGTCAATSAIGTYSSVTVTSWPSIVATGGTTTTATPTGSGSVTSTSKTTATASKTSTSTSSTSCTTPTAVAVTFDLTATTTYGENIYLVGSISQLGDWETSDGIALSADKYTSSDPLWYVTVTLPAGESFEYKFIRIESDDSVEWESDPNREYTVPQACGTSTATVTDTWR
Sequence of α-amylase from Bacillus licheniformis (P06278 30-512): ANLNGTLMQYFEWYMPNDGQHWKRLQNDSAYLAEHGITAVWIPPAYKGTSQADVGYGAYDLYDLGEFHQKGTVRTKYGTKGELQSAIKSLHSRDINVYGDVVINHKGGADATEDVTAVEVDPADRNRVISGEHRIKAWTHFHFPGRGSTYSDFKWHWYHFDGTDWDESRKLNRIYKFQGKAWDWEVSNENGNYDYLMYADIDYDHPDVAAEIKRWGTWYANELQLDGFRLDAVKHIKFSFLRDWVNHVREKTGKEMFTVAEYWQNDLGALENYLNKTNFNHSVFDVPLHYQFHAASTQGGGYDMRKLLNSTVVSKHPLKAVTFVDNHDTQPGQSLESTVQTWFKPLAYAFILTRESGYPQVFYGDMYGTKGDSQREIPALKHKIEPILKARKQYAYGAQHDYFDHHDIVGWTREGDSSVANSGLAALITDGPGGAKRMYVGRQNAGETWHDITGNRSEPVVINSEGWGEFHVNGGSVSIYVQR
T2 sequence (P10537 whole entry): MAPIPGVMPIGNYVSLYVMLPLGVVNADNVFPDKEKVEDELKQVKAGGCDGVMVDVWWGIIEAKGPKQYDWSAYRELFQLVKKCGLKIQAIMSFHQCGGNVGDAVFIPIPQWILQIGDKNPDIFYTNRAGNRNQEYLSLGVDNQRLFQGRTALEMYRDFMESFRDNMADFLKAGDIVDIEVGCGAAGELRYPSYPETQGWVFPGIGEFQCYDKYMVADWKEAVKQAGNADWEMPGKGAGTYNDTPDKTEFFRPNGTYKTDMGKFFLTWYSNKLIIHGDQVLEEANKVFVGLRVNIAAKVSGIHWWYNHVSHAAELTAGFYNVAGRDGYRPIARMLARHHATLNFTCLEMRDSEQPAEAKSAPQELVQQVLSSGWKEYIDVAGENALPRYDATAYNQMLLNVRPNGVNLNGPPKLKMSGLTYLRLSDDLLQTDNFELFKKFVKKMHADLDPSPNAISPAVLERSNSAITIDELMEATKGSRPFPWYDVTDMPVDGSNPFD
T3 sequence (P06278 30-512): as the sequence (P06278 30-512) above

## [Mn+2] [Mn^++, manganese ions]
[1]; 0.01 mM Mn^++
  Relative Activity: 105.0%
[1]; 0.1 mM Mn^++
  Relative Activity: 119.2%
[1]; 1 mM Mn^++
  Relative Activity: 133.5%
[1]; 10 mM Mn^++
  Relative Activity: 162.6%
[1]; summary of Table 3
  effect on hydrolysis of raw corn starch (in words): enhances the hydrolysis of raw corn starch
[2]; 0.01 mM Mn^++
  Relative Activity: 106.6%
[2]; 0.1 mM Mn^++
  Relative Activity: 125.5%
[2]; 1 mM Mn^++
  Relative Activity: 136.7%
[2]; 10 mM Mn^++
  Relative Activity: 155.6%
[2]; summary of Table 3
  effect on hydrolysis of raw corn starch (in words): enhances the hydrolysis of raw corn starch
[3]; raw corn starch pre-incubated with 0.01 mM Mn^++
  Relative Activity: 89.1%
[3]; raw corn starch pre-incubated with 0.1 mM Mn^++
  Relative Activity: 84.2%
[3]; raw corn starch pre-incubated with 1 mM Mn^++
  Relative Activity: 95.0%
[3]; raw corn starch pre-incubated with 10 mM Mn^++
  Relative Activity: 89.1%
[3]; starch pre-incubated with Mn^++ and washed
  cause of Mn^++-induced enhancement (in words): not caused by the action of Mn^++ on the starch
[4]; 1.0 mM Mn^++ pre-incubated with glucoamylase 0 min at 22° C., 5 min, raw corn starch
  % conversion of the starch substrate: 0.42%
[4]; 1.0 mM Mn^++ pre-incubated with glucoamylase 20 min at 22° C., 5 min, raw corn starch
  % conversion of the starch substrate: 0.35%
[4]; 1.0 mM Mn^++ pre-incubated with glucoamylase 40 min at 22° C., 5 min, raw corn starch
  % conversion of the starch substrate: 0.38%
[4]; 1.0 mM Mn^++ pre-incubated with glucoamylase 60 min at 22° C., 5 min, raw corn starch
  % conversion of the starch substrate: 0.38%
[4]; 1.0 mM Mn^++ pre-incubated with raw corn starch 0 min at 22° C., 5 min
  % conversion of the starch substrate: 0.51%
[4]; 1.0 mM Mn^++ pre-incubated with raw corn starch 0 min at 22° C., 10 min
  % conversion of the starch substrate: 0.73%
[4]; 1.0 mM Mn^++ pre-incubated with raw corn starch 20 min at 22° C., 5 min
  % conversion of the starch substrate: 0.48%
[4]; 1.0 mM Mn^++ pre-incubated with raw corn starch 20 min at 22° C., 10 min
  % conversion of the starch substrate: 0.79%
[4]; 1.0 mM Mn^++ pre-incubated with raw corn starch 40 min at 22° C., 5 min
  % conversion of the starch substrate: 0.50%
[4]; 1.0 mM Mn^++ pre-incubated with raw corn starch 40 min at 22° C., 10 min
  % conversion of the starch substrate: 0.81%
[4]; 1.0 mM Mn^++ pre-incubated with raw corn starch 60 min at 22° C., 5 min
  % conversion of the starch substrate: 0.58%
[4]; 1.0 mM Mn^++ pre-incubated with raw corn starch 60 min at 22° C., 10 min
  % conversion of the starch substrate: 0.80%
[4]; pre-incubation of Mn^++ with enzyme or with starch, 0-60 min
  effect of pre-incubation on activation by Mn^++ (in words): does not significantly influence the activation effect
[5]; 0.01 mM Mn^++, raw corn starch
  % Relative Activity: 99.5%
[5]; 0.01 mM Mn^++, soluble starch
  % Relative Activity: 112.5%
[5]; 0.1 mM Mn^++, raw corn starch
  % Relative Activity: 118.4%
[5]; 0.1 mM Mn^++, soluble starch
  % Relative Activity: 119.2%
[5]; 1 mM Mn^++, raw corn starch
  % Relative Activity: 133.3%
[5]; 1 mM Mn^++, soluble starch
  % Relative Activity: 155.7%
[5]; 10 mM Mn^++, raw corn starch
  % Relative Activity: 152.2%
[5]; 10 mM Mn^++, soluble starch
  % Relative Activity: 157.3%
[5]; [13]
  effect on hydrolysis of starch (in words): enhances the hydrolysis of both raw corn starch and soluble starch
[6]; 0.01 mM Mn^++, raw corn starch
  % Relative Activity: 113.9%
[6]; 0.01 mM Mn^++, soluble starch
  % Relative Activity: 108.6%
[6]; 0.1 mM Mn^++, raw corn starch
  % Relative Activity: 106.6%
[6]; 0.1 mM Mn^++, soluble starch
  % Relative Activity: 127.1%
[6]; 1 mM Mn^++, raw corn starch
  % Relative Activity: 136.5%
[6]; 1 mM Mn^++, soluble starch
  % Relative Activity: 146.6%
[6]; 10 mM Mn^++, raw corn starch
  % Relative Activity: 160.6%
[6]; 10 mM Mn^++, soluble starch
  % Relative Activity: 176.3%
[6]; [13]
  effect on hydrolysis of starch (in words): enhances the hydrolysis of both raw corn starch and soluble starch
[7]; 0.01 mM Mn^++, cooked dent corn starch 0.5%
  Relative Activity: 123.5%
[7]; 0.01 mM Mn^++, cooked high-amylose V corn starch 0.5%
  Relative Activity: 111.2%
[7]; 0.01 mM Mn^++, cooked soluble corn starch 0.5%
  Relative Activity: 138.7%
[7]; 0.01 mM Mn^++, cooked waxy corn starch 0.5%
  Relative Activity: 114.2%
[7]; 0.1 mM Mn^++, cooked dent corn starch 0.5%
  Relative Activity: 135.3%
[7]; 0.1 mM Mn^++, cooked high-amylose V corn starch 0.5%
  Relative Activity: 123.3%
[7]; 0.1 mM Mn^++, cooked soluble corn starch 0.5%
  Relative Activity: 135.7%
[7]; 0.1 mM Mn^++, cooked waxy corn starch 0.5%
  Relative Activity: 129.9%
[7]; 1 mM Mn^++, cooked dent corn starch 0.5%
  Relative Activity: 149.8%
[7]; 1 mM Mn^++, cooked high-amylose V corn starch 0.5%
  Relative Activity: 136.3%
[7]; 1 mM Mn^++, cooked soluble corn starch 0.5%
  Relative Activity: 174.8%
[7]; 1 mM Mn^++, cooked waxy corn starch 0.5%
  Relative Activity: 148.3%
[7]; 10 mM Mn^++, cooked dent corn starch 0.5%
  Relative Activity: 210.1%
[7]; 10 mM Mn^++, cooked high-amylose V corn starch 0.5%
  Relative Activity: 184.5%
[7]; 10 mM Mn^++, cooked soluble corn starch 0.5%
  Relative Activity: 199.6%
[7]; 10 mM Mn^++, cooked waxy corn starch 0.5%
  Relative Activity: 237.4%
[8]; 0.1 mM Mn^++
  Relative Activity: 124.4%
[8]; 1 mM Mn^++
  Relative Activity: 128.7%
[8]; 10 mM Mn^++
  Relative Activity: 147.8%
[9]
  Relative Activity: 113.0% and 119.5%
[10]; 0.01 mM Mn^++
  Relative Activity: 114.7%
[10]; 10 mM Mn^++
  Relative Activity: 156.3%
[11]; 0.01 mM Mn^++
  Relative Activity: 117.6%
[11]; 0.1 mM Mn^++
  Relative Activity: 131.4%
[11]; 1 mM Mn^++
  Relative Activity: 148.0%
[11]; 10 mM Mn^++
  Relative Activity: 215.0%
[12]; 0.01 mM Mn^++
  Relative Activity: 106.7%
[12]; 0.1 mM Mn^++
  Relative Activity: 124.7%
[12]; 1 mM Mn^++
  Relative Activity: 142.6%
[12]; 10 mM Mn^++
  Relative Activity: 143.5%
